Reference: article PMC7190413 (Journal of cystic fibrosis : official journal of the …, 2019)
Read-outs that look alike come from different tables or passages of the source.

Experiments:
[1] = biological target: T1, G551D-CFTR (Homo sapiens, UniProt P13569, G551D); assay: Fractional PM activity; assay type: cell-based; settings: CFBE; forskolin-stimulated, mono-therapy or dual potentiator treatment; Fig. 5d
[2] = system: S1251N-CFTR; assay: Fractional PM activity; assay type: cell-based, human; settings: CFBE; forskolin plus single potentiator; Fig. 5f
[3] = biological target: T1, G551D-CFTR; assay: Short-circuit current; assay type: cell-based; settings: for forskolin-activated Isc relative to that of WT-CFTR: forskolin 20 μM
[4] = biological target: T1, G551D-CFTR; assay: Single-channel activity in reconstituted planar phospholipid bilayer; assay type: biochemical; settings: PKA-activated, 28–30°C
[5] = biological target: T1, G551D-CFTR; assay: Short-circuit current; assay type: cell-based; settings: CFBE; forskolin 20 μM then acute VX-770 10 μM; Fig. 5a,b

T1 sequence (P13569 whole entry G551D): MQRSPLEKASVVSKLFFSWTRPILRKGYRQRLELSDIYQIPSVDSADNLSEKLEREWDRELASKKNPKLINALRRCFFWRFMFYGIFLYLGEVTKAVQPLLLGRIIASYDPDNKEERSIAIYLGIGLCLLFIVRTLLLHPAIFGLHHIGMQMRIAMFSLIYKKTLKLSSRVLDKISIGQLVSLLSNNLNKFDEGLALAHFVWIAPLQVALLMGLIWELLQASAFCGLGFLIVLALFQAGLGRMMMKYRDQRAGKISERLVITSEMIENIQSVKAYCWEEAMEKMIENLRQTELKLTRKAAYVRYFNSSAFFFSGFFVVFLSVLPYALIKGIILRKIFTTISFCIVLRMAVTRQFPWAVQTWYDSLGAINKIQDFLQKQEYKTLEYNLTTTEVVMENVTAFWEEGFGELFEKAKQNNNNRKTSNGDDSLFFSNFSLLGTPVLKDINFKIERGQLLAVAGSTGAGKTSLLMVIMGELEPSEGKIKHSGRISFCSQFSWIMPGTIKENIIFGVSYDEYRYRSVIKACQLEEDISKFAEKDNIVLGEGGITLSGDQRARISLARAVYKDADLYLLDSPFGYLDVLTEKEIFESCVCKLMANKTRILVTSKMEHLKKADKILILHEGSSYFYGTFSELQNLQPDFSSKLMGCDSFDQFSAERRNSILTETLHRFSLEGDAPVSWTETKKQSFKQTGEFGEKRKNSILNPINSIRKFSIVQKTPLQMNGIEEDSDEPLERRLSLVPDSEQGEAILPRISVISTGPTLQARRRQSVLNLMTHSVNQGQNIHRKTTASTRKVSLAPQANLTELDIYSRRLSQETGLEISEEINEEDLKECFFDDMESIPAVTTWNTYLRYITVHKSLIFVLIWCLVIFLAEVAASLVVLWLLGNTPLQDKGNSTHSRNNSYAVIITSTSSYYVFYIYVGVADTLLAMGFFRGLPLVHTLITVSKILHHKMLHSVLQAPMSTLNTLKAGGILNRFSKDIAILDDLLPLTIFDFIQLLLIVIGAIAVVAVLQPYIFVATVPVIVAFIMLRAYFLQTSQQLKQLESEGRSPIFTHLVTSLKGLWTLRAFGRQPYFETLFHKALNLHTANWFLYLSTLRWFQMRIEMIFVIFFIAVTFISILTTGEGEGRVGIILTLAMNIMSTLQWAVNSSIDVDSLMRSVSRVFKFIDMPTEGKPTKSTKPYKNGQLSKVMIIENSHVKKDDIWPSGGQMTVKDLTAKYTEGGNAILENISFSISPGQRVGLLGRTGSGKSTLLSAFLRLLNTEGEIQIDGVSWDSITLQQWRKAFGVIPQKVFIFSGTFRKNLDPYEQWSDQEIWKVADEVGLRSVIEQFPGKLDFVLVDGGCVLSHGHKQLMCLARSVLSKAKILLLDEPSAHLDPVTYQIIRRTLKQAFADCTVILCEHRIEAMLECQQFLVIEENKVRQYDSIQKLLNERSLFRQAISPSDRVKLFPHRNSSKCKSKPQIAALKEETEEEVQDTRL

Compound | fractional PM activity of G551D, of the WT [1] | fractional PM activity of S1251N after single potentiator therapy, of WT [2] | lower potency in comparison to VX-770 ([3]; HNE, G551D-CFTR, Isc EC50) | EC50 ([3]; read-out: EC50 for G551D-CFTR potentiation, HNE, Isc, Supplementary Fig. 6e,f) | open probability (Po) of phosphorylated G551D-CFTR ([4]; 3 μM VX-770) | G551D-CFTR Isc, of WT-function [5] | EC50 [3] | forskolin-activated Isc relative to that of WT-CFTR ([3]; HNE with G551D on both alleles) | forskolin-activated Isc relative to that of WT-CFTR ([3]; HNE with one copy of G551D) | open probability (Po) of phosphorylated G551D-CFTR upon addition of apigenin ([4]; 50 μM apigenin in the presence of 3 μM VX-770)
CC1(C)Cc2c(sc(NC(=O)c3ccn[nH]3)c2C(N)=O)C(C)(C)O1 [ABBV-974] | 7% | ~ 80% | 7 fold | ~300 nM | – | – | – | – | – | –
CC(C)(C)c1cc(C(C)(C)C)c(NC(=O)c2c[nH]c3ccccc3c2=O)cc1O [VX-770, ivacaftor] | 6% | ~ 80% | – | – | ~ 0.08 | ~ 6% | ~40 nM | ~ 50% | ~ 25% | –
O=c1cc(-c2ccc(O)cc2)oc2cc(O)cc(O)c12 [apigenin] | – | – | – | – | – | – | – | – | – | 0.14
